Results reported in patent US9801901B2, “Alginate oligomers for use in overcoming multidrug resistance in bacteria” (priority 2009, dated 2017).
Values after ≈ are worked out from the molar mass of the structure shown. Read-outs that look alike come from different tables or passages of the source. Marks after values point to notes of the source that are not given here.

Assays:
[1] = tested on: Acinetobacter baumannii (Egypt, V9); test: MIC-assay, Mueller-Hinton broth with G-block alginate, 384-well, OD600
[2] = tested on: Acinetobacter lwoffii (Egypt, V10); test: as above
V11 5702 (Wales) E. coli = test: MIC assay, CAMHB with alginate oligomer, no visible growth; assay type: cell-based; settings: Table 5, V11 MDR E.coli
[3] = tested on: strains of Klebsiella pneumoniae displaying MDR phenotypes; test: MIC-assay, Mueller-Hinton broth with G-block alginate, 384-well, OD600 (Table 10); assay type: cell-based; settings: read-out: MIC
From the text: Minimum inhibitory concentration (MICs) of different antibiotics for strains of Klebsiella pneumoniae displaying MDR phenotypes in the presence of varying concentrations of OligoCF-5/20 (0-10%). (MIC values are expressed in μg ml^−1).

[4] = tested on: Acinetobacter lwoffii (6056, V22); test: MIC-assay, Mueller-Hinton broth with G-block alginate, 384-well, OD600
[5] = tested on: Pseudomonas aeruginosa MDR 301 from Poland (V2); test: MIC assay, CAMHB with alginate oligomer, no visible growth; assay type: cell-based; settings: Pseudomonas aeruginosa, Table 1, V2 MDR 301 PA, read-out: MIC
V22 6056 Acinetobacter = test: as above; assay type: cell-based, Acinetobacter lwoffii; settings: Table 5, V22 MDR Acin. lwoff
[6] = tested on: Acinetobacter baumannii MDR ACB from Libya (V4); test: as above; assay type: cell-based; settings: for MIC: Acinetobacter baumannii, read-out: MIC
From the text: The study described in Example 1 was repeated with the following strains of bacteria and antibiotics as detailed in Tables 4, 5 and 6.
The study described in Example 1 was repeated with the following strains of Acinetobacter baumannii, antibiotics and M-block alginate oligomer in place of OligoG CF-5/20 as detailed in Table 7. The M-block oligomer is 100% M with a DPn of 15 to 18,

Streptococcus oralis = test: MIC-assay, Mueller-Hinton broth with G-block alginate, 384-well, OD600 (Table 12); assay type: cell-based; settings: Streptococcus oralis (5610, V17) MDR
From the text: (§1) Minimum inhibitory concentration (MICs) of different antibiotics for strains of Streptococcus oralis and Staphylococcus aureus (MRSA) displaying MDR phenotypes in the presence of varying concentrations of OligoCF-5/20 (0-10%). (MIC values are expressed in μg ml^−1).

[7] = tested on: Staphylococcus aureus (MRSA) U50; test: as above; assay type: cell-based; settings: MRSA 1040s, U50 MDR, read-out: MIC
From the text: as §1

[8] = tested on: strains of E. coli displaying MDR phenotypes; test: MIC-assay, Mueller-Hinton broth with G-block alginate, 384-well, OD600 (Table 11); assay type: cell-based; settings: Escherichia coli, Escherichia coli (5702, Wales, V11) MDR, read-out: MIC
From the text: Minimum inhibitory concentration (MICs) of different antibiotics for strains of E. coli and Providencia stuartii displaying MDR phenotypes in the presence of varying concentrations of OligoCF-5/20 (0-10%). (MIC values are expressed in μg ml^−1).

[9] = tested on: V10 (Egypt) Acinetobacter lwoffii; test: MIC assay, CAMHB with alginate oligomer, no visible growth; assay type: cell-based; settings: Table 5, V10 MDR Acin. lwoff
[10] = Table 9, G-block (OligoCF-5/20) 0%
[11] = Table 9, G-block (OligoCF-5/20) 2%
[12] = Table 9, G-block (OligoCF-5/20) 6%
[13] = Table 9, G-block (OligoCF-5/20) 10%
[14] = Acinetobacter, OligoCF-5/20 0G, read-out: MIC
[15] = Table 1, V4 ACB (Libya), OligoCF-5/20 0G
[16] = Table 1, V4 ACB (Libya), OligoCF-5/20 +2% G
[17] = Table 1, V4 ACB (Libya), OligoCF-5/20 +6% G
[18] = Table 1, V4 ACB (Libya), OligoCF-5/20 +10% G
[19] = Table 7, V4 MDR Acin baum (Libya), M-block oligomer 0M
[20] = Table 7, V4 MDR Acin baum (Libya), M-block oligomer +2% M
[21] = Table 7, V4 MDR Acin baum (Libya), M-block oligomer +6% M

SMILES: O=C(O)c1cn(C2CC2)c2cc(N3CCNCC3)c(F)cc2c1=O [Ciprofloxacin]
- MIC [1, 10]: > 8 µg/mL
- MIC [1, 11]: > 8 µg/mL
- MIC [1, 12]: 8 µg/mL (≈ 24.1 µM)
- MIC [1, 13]: 8 µg/mL (≈ 24.1 µM)
- MIC [2, 10]: 0.063 µg/mL (≈ 0.19 µM)
- MIC [2, 11]: 0.031 µg/mL (≈ 0.0936 µM)
- MIC [2, 12]: 0.031 µg/mL (≈ 0.0936 µM)
- MIC [2, 13]: 0.031 µg/mL (≈ 0.0936 µM)
- MIC (V11 5702 (Wales) E. coli; OligoCF-5/20 +2% G): 64^† μg/ml
- MIC ([3]; Klebsiella pneumoniae (5712, Wales, V12) MDR, G-block (OligoCF-5/20) 0%): > 8 µg/mL
- MIC ([3]; Klebsiella pneumoniae (5712, Wales, V12) MDR, G-block (OligoCF-5/20) 2%): > 8 µg/mL
- MIC ([3]; Klebsiella pneumoniae (5712, Wales, V12) MDR, G-block (OligoCF-5/20) 6%): > 8 µg/mL
- MIC ([3]; Klebsiella pneumoniae (5712, Wales, V12) MDR, G-block (OligoCF-5/20) 10%): > 8 µg/mL
- MIC ([3]; Klebsiella pneumoniae (IR25, India, V6) MDR, G-block (OligoCF-5/20) 2%): 64 µg/mL (≈ 193 µM)
- MIC ([3]; Klebsiella pneumoniae (IR25, India, V6) MDR, G-block (OligoCF-5/20) 6%): 64 µg/mL (≈ 193 µM)
- MIC ([3]; Klebsiella pneumoniae (IR25, India, V6) MDR, G-block (OligoCF-5/20) 10%): 64 µg/mL (≈ 193 µM)
- MIC ([3]; Klebsiella pneumoniae (K3, India, V8) MDR, G-block (OligoCF-5/20) 0%): 32 µg/mL (≈ 96.6 µM)
- MIC ([3]; Klebsiella pneumoniae (K3, India, V8) MDR, G-block (OligoCF-5/20) 2%): 32 µg/mL (≈ 96.6 µM)
- MIC ([3]; Klebsiella pneumoniae (K3, India, V8) MDR, G-block (OligoCF-5/20) 6%): > 1020 µg/mL
- MIC ([3]; Klebsiella pneumoniae (K3, India, V8) MDR, G-block (OligoCF-5/20) 10%): > 1020 µg/mL
- MIC [4, 10]: < 2 µg/mL
- MIC [4, 11]: < 2 µg/mL
- MIC [4, 12]: < 2 µg/mL
- MIC [4, 13]: < 2 µg/mL
- MIC ([5]; OligoCF-5/20 0G): 16 µg/mL (≈ 48.3 µM)
- MIC ([5]; OligoCF-5/20 +2% G): 16 µg/mL (≈ 48.3 µM)
- MIC ([5]; OligoCF-5/20 +6% G): 8 µg/mL (≈ 24.1 µM)
- MIC ([5]; OligoCF-5/20 +10% G): 8 µg/mL (≈ 24.1 µM)
- MIC (V22 6056 Acinetobacter; [14]): < 0.25 µg/mL
- MIC [6, 15]: 64 µg/mL (≈ 193 µM)
- MIC [6, 16]: 32 µg/mL (≈ 96.6 µM)
- MIC [6, 17]: 16 µg/mL (≈ 48.3 µM)
- MIC [6, 18]: 16 µg/mL (≈ 48.3 µM)
- MIC [6, 19]: 64 µg/mL (≈ 193 µM)
- MIC [6, 20]: 64 µg/mL (≈ 193 µM)
- MIC [6, 21]: 64 µg/mL (≈ 193 µM)
- effect in combination with alginate oligomers ([6]; Example 1, Acinetobacter baumannii isolate): more positive effect
- change of MIC in combination with azithromycin by alginate oligomer ([6]; Table 3, MDR Acinetobacter baumannii isolate): reduced
- MIC (Streptococcus oralis; G-block (OligoCF-5/20) 0%, read-out: MIC): 32 µg/mL (≈ 96.6 µM)
- MIC (Streptococcus oralis; G-block (OligoCF-5/20) 2%): < 0.0625 µg/mL
- MIC (Streptococcus oralis; G-block (OligoCF-5/20) 6%, read-out: MIC): 2 µg/mL (≈ 6.04 µM)
- MIC (Streptococcus oralis; G-block (OligoCF-5/20) 10%, read-out: MIC): 2 µg/mL (≈ 6.04 µM)
- MIC ([7]; G-block (OligoCF-5/20) 0%): 32 µg/mL (≈ 96.6 µM)
- MIC ([7]; G-block (OligoCF-5/20) 2%): 32 µg/mL (≈ 96.6 µM)
- MIC ([7]; G-block (OligoCF-5/20) 6%): > 1020 µg/mL
- MIC ([7]; G-block (OligoCF-5/20) 10%): > 1020 µg/mL
- MIC ([8]; G-block (OligoCF-5/20) 0%): > 8 µg/mL
- MIC ([8]; G-block (OligoCF-5/20) 2%): > 8 µg/mL
- MIC ([8]; G-block (OligoCF-5/20) 6%): > 8 µg/mL
- MIC ([8]; G-block (OligoCF-5/20) 10%): > 8 µg/mL

SMILES: C[C@@H](O)[C@H]1C(=O)N2C(C(=O)O)=C(S[C@@H]3CN[C@H](C(=O)N(C)C)C3)[C@H](C)[C@H]12 [Meropenem]
- MIC ([9]; Acinetobacter lwoffii, OligoCF-5/20 0G, read-out: MIC): 1 µg/mL (≈ 2.61 µM)
- MIC ([9]; OligoCF-5/20 +2% G): 0.5^† μg/ml
- MIC ([9]; OligoCF-5/20 +6% G): <0.25^† μg/ml
- MIC ([9]; OligoCF-5/20 +10% G): <0.25^† μg/ml
- MIC (V11 5702 (Wales) E. coli; Escherichia coli, OligoCF-5/20 0G, read-out: MIC): < 0.25 µg/mL
- MIC (V11 5702 (Wales) E. coli; OligoCF-5/20 +2% G): <0.25 µg/mL
- MIC (V11 5702 (Wales) E. coli; OligoCF-5/20 +6% G): <0.25 µg/mL
- MIC (V11 5702 (Wales) E. coli; OligoCF-5/20 +10% G): <0.25 µg/mL
- MIC ([5]; OligoCF-5/20 0G): 64 µg/mL (≈ 167 µM)
- MIC ([5]; OligoCF-5/20 +2% G): 64 µg/mL (≈ 167 µM)
- MIC (V22 6056 Acinetobacter; [14]): 256 µg/mL (≈ 668 µM)
- MIC (V22 6056 Acinetobacter; OligoCF-5/20 +10% G): 64^† μg/ml
- MIC [6, 15]: < 4 µg/mL
- MIC [6, 16]: < 4 µg/mL
- MIC [6, 17]: < 4 µg/mL
- MIC [6, 18]: < 4 µg/mL
- MIC [6, 19]: 16 µg/mL (≈ 41.7 µM)
- MIC [6, 20]: 32 µg/mL (≈ 83.4 µM)
- MIC [6, 21]: 16 µg/mL (≈ 41.7 µM)
- MIC ([6]; Table 7, V4 MDR Acin baum (Libya), M-block oligomer +10% M): 8 µg/mL (≈ 20.9 µM)
